Measured values published in ChEMBL document CHEMBL4507291 (2021).

What was measured:
[1] = molecular target: 5-hydroxytryptamine receptor 2B (Homo sapiens, UniProt P41595); experiment: Inhibition of Serotonin (5-Hydroxytryptamine) 5-HT2B at compound concentration of 10.0 uM in the Eurofins-Panlabs radioligand binding assay (Eurofins_assay_271700); set-up: ligand concentration 1.2 nM, non-specific ligand with concentration 10 uM Serotonin (5-HT), incubation time 60 min, incubation temperature 37 C
[2] = molecular target: MAO-A (amine oxidase [flavin-containing] A) (Homo sapiens, UniProt P21397); experiment: Inhibition of Monoamine Oxidase MAO-A at compound concentration of 10.0 uM in the Eurofins-Panlabs enzyme assay (Eurofins_assay_140010); set-up: substrate with concentration 50 uM Kynuramine, incubation time 60 min, incubation temperature 37 C; conditions: recombinant human MAO-A expressed in insect Hi5 cells, probe kynuramine (50 uM), compound concentration 10 uM
Chain of MAO-A (amine oxidase [flavin-containing] A) (P21397 whole entry): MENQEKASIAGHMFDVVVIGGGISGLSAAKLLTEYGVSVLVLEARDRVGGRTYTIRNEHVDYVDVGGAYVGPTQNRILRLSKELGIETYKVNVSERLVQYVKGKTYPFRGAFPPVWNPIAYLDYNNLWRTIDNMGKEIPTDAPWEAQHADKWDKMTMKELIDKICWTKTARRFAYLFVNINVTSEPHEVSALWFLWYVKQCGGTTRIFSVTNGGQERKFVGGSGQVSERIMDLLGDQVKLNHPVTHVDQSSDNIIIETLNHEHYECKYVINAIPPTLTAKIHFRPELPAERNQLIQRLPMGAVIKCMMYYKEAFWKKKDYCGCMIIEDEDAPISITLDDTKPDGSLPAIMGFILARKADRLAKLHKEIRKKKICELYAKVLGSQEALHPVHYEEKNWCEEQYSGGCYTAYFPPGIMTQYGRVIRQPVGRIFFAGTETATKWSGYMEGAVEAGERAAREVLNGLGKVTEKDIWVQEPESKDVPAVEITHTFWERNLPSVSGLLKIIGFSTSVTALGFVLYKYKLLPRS

[3] = molecular target: Aurora kinase B (Homo sapiens) (UniProt Q96GD4); experiment: AURKB (Aurora B) Kinase screen; conditions: Compound concentration 1.0 uM
Chain of Aurora kinase B (Homo sapiens) (Q96GD4 whole entry): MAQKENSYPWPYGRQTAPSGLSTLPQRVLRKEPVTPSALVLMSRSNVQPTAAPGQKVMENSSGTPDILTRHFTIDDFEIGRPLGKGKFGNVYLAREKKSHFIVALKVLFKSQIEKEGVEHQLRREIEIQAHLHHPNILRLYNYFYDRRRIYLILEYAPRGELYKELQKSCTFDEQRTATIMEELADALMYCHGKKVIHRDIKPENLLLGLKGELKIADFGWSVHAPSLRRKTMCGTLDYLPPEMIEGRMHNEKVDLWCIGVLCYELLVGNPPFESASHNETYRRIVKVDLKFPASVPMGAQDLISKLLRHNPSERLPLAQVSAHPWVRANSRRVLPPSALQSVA

[4] = molecular target: Calcium/calmodulin-dependent protein kinase kinase 2 (Homo sapiens) (UniProt Q96RR4); experiment: CAMKK2 (CaMKK beta) Kinase screen; conditions: Compound concentration 1.0 uM
[5] = molecular target: Dual specificity tyrosine-phosphorylation-regulated kinase 4 (Homo sapiens) (UniProt Q9NR20); experiment: DYRK4 Kinase screen; conditions: Compound concentration 1.0 uM
[6] = molecular target: Epidermal growth factor receptor (Homo sapiens) (UniProt P00533); experiment: EGFR (ErbB1) Kinase screen; conditions: Compound concentration 1.0 uM
[7] = molecular target: Glycogen synthase kinase-3 alpha (Homo sapiens) (UniProt P49840); experiment: GSK3A (GSK3 alpha) Kinase screen; conditions: Compound concentration 1.0 uM
[8] = molecular target: Tyrosine-protein kinase HCK (Homo sapiens) (UniProt P08631); experiment: HCK Kinase screen; conditions: Compound concentration 1.0 uM
[9] = molecular target: Insulin-like growth factor 1 receptor (Homo sapiens) (UniProt P08069); experiment: IGF1R Kinase screen; conditions: Compound concentration 1.0 uM
[10] = molecular target: Insulin receptor-related protein (Homo sapiens) (UniProt P14616); experiment: INSRR (IRR) Kinase screen; conditions: Compound concentration 1.0 uM
Chain of Insulin receptor-related protein (Homo sapiens) (P14616 27-742 limits assumed): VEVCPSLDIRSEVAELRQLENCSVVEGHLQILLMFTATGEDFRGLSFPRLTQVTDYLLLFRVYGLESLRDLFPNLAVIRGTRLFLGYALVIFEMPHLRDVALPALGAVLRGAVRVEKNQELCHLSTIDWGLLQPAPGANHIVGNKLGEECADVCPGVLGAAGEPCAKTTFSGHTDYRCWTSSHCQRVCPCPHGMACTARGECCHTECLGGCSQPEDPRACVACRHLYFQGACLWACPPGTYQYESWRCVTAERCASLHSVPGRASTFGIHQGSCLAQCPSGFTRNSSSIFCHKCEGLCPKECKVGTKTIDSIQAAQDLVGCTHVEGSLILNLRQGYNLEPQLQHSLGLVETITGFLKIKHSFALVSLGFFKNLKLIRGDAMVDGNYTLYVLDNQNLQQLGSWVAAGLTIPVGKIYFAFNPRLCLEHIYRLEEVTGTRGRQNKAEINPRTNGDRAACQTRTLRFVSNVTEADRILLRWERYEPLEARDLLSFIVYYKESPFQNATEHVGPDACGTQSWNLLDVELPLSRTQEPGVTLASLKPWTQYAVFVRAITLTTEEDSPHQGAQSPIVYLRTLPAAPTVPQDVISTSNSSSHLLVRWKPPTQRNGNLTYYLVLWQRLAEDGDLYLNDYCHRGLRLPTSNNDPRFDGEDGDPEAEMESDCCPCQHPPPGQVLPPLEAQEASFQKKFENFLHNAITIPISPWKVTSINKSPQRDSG
Chain of Insulin receptor-related protein (Homo sapiens) (P14616 747-1297 limits assumed): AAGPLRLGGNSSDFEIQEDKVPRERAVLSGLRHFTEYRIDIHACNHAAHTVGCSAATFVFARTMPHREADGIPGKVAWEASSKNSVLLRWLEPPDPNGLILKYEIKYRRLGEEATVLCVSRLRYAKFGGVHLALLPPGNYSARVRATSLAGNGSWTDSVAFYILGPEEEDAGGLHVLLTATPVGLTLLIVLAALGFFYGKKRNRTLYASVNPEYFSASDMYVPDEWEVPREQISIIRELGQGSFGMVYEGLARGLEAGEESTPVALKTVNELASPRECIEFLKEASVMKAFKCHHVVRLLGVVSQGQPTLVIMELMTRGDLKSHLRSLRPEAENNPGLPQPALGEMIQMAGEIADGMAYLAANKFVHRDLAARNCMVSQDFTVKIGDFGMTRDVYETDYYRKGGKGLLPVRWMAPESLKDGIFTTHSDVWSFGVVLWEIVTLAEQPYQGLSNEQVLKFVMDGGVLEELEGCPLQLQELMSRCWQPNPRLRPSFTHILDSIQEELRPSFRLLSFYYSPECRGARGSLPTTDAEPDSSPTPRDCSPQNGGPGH

[11] = molecular target: Tyrosine-protein kinase JAK2 (Homo sapiens) (UniProt O60674); experiment: JAK2 Kinase screen; conditions: Compound concentration 1.0 uM
[12] = system: Mast/stem cell growth factor receptor Kit (Homo sapiens), P10721 [V654A]; experiment: KIT V654A Kinase screen; conditions: Compound concentration 1.0 uM
[13] = molecular target: Mitogen-activated protein kinase kinase kinase 10 (Homo sapiens) (UniProt Q02779); experiment: MAP3K10 (MLK2) Kinase screen; conditions: Compound concentration 1.0 uM
[14] = molecular target: Mitogen-activated protein kinase kinase kinase 9 (Homo sapiens) (UniProt P80192); experiment: MAP3K9 (MLK1) Kinase screen; conditions: Compound concentration 1.0 uM
[15] = molecular target: Mitogen-activated protein kinase 11 (Homo sapiens) (UniProt Q15759); experiment: MAPK11 (p38 beta) Kinase screen; conditions: Compound concentration 1.0 uM
[16] = molecular target: Hepatocyte growth factor receptor (Homo sapiens) (UniProt P08581); experiment: MET (cMet) Kinase screen; conditions: Compound concentration 1.0 uM
[17] = molecular target: Serine/threonine-protein kinase Nek4 (Homo sapiens) (UniProt P51957); experiment: NEK4 Kinase screen; conditions: Compound concentration 1.0 uM
[18] = system: Platelet-derived growth factor receptor alpha (Homo sapiens), P16234 [T674I]; experiment: PDGFRA T674I Kinase screen; conditions: Compound concentration 1.0 uM
Chain of Platelet-derived growth factor receptor alpha (Homo sapiens), P16234 [T674I] (P16234 whole entry T674I): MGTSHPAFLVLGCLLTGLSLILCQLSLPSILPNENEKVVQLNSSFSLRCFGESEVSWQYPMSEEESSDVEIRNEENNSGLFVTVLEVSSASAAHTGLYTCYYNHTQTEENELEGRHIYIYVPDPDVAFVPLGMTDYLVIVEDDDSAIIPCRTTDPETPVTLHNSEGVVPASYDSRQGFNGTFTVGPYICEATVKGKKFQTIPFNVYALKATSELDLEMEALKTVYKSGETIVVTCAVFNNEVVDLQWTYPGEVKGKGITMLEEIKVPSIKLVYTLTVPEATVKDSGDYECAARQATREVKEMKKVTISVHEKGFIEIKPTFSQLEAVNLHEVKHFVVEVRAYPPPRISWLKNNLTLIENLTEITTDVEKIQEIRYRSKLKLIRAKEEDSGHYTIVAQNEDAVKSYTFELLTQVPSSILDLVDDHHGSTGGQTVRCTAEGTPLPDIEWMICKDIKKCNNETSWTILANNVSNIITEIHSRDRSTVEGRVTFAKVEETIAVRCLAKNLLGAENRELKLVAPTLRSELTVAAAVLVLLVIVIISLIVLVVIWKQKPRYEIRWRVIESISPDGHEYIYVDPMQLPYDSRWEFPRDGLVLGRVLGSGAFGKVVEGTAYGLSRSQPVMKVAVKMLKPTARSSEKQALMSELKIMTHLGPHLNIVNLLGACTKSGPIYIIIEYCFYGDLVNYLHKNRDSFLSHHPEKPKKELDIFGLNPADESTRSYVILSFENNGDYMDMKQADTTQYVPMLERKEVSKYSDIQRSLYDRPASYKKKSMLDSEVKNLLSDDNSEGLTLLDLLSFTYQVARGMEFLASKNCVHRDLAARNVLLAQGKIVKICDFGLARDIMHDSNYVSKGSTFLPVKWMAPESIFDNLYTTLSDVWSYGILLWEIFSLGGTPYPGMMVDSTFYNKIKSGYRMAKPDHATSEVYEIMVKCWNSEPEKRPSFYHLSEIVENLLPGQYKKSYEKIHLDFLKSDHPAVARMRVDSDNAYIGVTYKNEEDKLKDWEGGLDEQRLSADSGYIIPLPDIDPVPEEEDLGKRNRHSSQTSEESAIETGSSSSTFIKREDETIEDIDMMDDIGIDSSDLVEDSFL

[19] = molecular target: Serine/threonine-protein kinase PLK2 (Homo sapiens) (UniProt Q9NYY3); experiment: PLK2 Kinase screen; conditions: Compound concentration 1.0 uM
Chain of Serine/threonine-protein kinase PLK2 (Homo sapiens) (Q9NYY3 whole entry, looked up): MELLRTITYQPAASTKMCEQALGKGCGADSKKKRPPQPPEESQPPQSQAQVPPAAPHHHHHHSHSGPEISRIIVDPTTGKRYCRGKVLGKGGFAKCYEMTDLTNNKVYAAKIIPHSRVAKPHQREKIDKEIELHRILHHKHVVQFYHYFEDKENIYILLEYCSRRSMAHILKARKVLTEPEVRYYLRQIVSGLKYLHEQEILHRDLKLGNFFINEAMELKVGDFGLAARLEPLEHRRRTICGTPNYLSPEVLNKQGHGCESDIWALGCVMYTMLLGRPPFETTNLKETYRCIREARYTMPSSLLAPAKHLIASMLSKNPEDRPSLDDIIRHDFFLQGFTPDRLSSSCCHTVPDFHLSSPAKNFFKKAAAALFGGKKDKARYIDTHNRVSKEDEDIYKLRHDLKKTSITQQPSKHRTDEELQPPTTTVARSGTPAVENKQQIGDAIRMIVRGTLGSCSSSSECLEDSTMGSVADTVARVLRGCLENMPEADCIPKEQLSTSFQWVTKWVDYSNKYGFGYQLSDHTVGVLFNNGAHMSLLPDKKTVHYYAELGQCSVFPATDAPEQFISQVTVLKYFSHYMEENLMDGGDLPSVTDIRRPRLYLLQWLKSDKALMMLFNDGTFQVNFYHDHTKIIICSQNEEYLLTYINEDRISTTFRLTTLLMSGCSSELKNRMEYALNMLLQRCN

[20] = molecular target: Proto-oncogene tyrosine-protein kinase receptor Ret (Homo sapiens) (UniProt P07949); experiment: RET Kinase screen; conditions: Compound concentration 1.0 uM
[21] = molecular target: Ribosomal protein S6 kinase alpha-1 (Homo sapiens) (UniProt Q15418); experiment: RPS6KA1 (RSK1) Kinase screen; conditions: Compound concentration 1.0 uM
[22] = molecular target: SRSF protein kinase 1 (Homo sapiens) (UniProt Q96SB4); experiment: SRPK1 Kinase screen; conditions: Compound concentration 1.0 uM
Chain of SRSF protein kinase 1 (Homo sapiens) (Q96SB4 whole entry): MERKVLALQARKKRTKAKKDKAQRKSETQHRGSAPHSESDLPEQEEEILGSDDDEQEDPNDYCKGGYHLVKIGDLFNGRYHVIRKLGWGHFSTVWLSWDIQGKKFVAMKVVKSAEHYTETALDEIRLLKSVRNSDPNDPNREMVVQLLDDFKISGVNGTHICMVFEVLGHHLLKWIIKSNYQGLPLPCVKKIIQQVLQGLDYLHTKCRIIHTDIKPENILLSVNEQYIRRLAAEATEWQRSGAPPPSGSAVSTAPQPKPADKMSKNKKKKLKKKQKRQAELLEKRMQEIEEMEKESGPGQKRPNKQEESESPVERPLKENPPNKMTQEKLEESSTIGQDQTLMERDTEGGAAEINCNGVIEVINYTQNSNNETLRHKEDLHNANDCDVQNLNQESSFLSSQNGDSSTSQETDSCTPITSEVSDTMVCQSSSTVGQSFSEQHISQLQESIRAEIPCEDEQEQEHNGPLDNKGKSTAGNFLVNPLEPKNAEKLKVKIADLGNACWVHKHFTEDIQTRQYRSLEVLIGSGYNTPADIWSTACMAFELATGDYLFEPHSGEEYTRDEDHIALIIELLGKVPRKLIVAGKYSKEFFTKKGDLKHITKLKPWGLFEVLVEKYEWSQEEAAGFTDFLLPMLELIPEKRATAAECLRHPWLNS

[23] = molecular target: Serine/threonine-protein kinase 25 (Homo sapiens) (UniProt O00506); experiment: STK25 (YSK1) Kinase screen; conditions: Compound concentration 1.0 uM
Chain of Serine/threonine-protein kinase 25 (Homo sapiens) (O00506 whole entry, looked up): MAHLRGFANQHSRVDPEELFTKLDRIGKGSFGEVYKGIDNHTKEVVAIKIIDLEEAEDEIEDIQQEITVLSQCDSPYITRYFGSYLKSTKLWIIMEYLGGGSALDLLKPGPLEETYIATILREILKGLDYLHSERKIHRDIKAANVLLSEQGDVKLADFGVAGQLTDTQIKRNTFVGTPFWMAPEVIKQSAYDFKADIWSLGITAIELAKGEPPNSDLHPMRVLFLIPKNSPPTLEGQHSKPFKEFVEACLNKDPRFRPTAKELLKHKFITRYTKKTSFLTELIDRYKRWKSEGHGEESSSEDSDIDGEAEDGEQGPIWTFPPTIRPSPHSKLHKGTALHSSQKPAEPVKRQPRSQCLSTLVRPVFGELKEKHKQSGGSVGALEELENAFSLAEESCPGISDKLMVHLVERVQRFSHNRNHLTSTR

[24] = molecular target: T1, Serine/threonine-protein kinase 3 (Homo sapiens) (UniProt Q13188); experiment: STK3 (MST2) Kinase screen; conditions: Compound concentration 1.0 uM
T1 sequence (whole entry): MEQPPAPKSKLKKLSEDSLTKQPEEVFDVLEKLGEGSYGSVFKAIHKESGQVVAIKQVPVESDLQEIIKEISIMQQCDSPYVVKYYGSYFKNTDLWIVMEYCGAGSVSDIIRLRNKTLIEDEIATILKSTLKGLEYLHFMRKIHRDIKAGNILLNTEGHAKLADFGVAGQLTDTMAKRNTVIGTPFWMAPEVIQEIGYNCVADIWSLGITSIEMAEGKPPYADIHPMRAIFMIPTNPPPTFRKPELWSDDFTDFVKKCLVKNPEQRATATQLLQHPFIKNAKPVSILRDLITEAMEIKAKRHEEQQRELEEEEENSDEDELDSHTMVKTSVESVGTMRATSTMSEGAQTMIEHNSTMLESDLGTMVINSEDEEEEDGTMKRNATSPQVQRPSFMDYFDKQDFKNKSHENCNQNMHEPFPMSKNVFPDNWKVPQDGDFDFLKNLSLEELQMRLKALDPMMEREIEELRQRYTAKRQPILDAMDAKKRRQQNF

[25] = molecular target: T2, Serine/threonine-protein kinase 4 (Homo sapiens) (UniProt Q13043); experiment: STK4 (MST1) Kinase screen; conditions: Compound concentration 1.0 uM
T2 sequence (whole entry): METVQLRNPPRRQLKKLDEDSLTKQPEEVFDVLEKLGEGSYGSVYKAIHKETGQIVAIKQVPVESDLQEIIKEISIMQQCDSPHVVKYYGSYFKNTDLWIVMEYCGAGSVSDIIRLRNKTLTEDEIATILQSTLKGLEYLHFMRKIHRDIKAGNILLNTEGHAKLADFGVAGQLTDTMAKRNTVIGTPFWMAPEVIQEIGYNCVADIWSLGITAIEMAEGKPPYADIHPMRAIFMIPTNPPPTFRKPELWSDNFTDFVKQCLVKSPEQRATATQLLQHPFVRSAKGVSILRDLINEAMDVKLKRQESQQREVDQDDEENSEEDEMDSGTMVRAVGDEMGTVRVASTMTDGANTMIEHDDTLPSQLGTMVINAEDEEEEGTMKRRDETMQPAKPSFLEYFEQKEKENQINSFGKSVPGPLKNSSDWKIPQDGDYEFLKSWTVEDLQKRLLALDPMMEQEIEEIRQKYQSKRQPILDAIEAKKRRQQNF

[26] = molecular target: Kappa-type opioid receptor (Homo sapiens) (UniProt P41145); conditions: Compound concentration 10.0 uM

Compound: C[C@@H]1CN(c2cc(-c3n[nH]c4ccc(OC5(C)CC5)cc34)ncn2)C[C@H](C)O1 [MLi-2]
- Ki [1]: 750 nM
- inhibition at 60 min, 10 µM [2]: 2% (not active)
- inhibition [3]: 16.2%
- inhibition [4]: 19.8%
- inhibition [5]: 1.74%
- inhibition [6]: -0.77%
- inhibition [7]: 0.0184%
- inhibition [8]: 7.67%
- inhibition [9]: 1.96%
- inhibition [10]: 21.1%
- inhibition [11]: 5.78%
- inhibition [12]: 1.06%
- inhibition [13]: 0.659%
- inhibition [14]: 27.3%
- inhibition [15]: 13%
- inhibition [16]: 5.51%
- inhibition [17]: 6.39%
- inhibition [18]: 23.5%
- inhibition [19]: 12.7%
- inhibition [20]: 5.76%
- inhibition [21]: 8.66%
- inhibition [22]: 6.15%
- inhibition [23]: 2.24%
- inhibition [24]: 11.9%
- inhibition [25]: 21.8%
- inhibition [26]: 19%
